Measured values reported in patent US20070293446A1, “Compositions comprising C-13 alkoxyether macrolide compounds and phenylpyrazole compounds” (priority 1996, published 2007).

Assay type: physicochemical
Text: The solvent will be used in proportion with the concentration of the compound I and its solubility in this solvent. […] It will be sought to have the lowest possible volume. The vehicle makes up the difference to 100%.

## N#Cc1nn(-c2c(Cl)cc(C(F)(F)F)cc2Cl)c(N)c1[S+]([O-])C(F)(F)F (stereo not shown) [fipronil, 1-[2,6—Cl2-4—CF3 phenyl]-3—CN-4-[SO-CF3]-5—NH2 pyrazole]
  Solubility: 4.3 % m/V
